Where “and” joins values, the source holds several entries; their conditions need not be identical. Equal values may be shown once.
Columns and labels:
Assay type in all cases: binding
[1] = system: DNA oligomer 5′-TGGTCTCACGTCAGTG-3′ (SEQ ID NO: 19); experiment: Melting curve analysis, mismatch discrimination in moderate salt, DNA/DNA control; settings: for Tm, ° C. DNA/DNA: 20 millimolar Tris-HCl, pH 7.5, 150 millimolar NaCl, 10 millimolar MgCl2, oligomers 1:1; for ΔTm DNA/DNA: 150 millimolar NaCl, relative to no mismatches
Source text: (§1) The sequence of the […] oligomer was: Th-Gp-Gh-Tp-Ch-Tp-Ch-Ap-Ah-Gp-Th-Cp-Ah-Gp-Th-Gp-dT, where the subscript h denotes a “HypNA” monomeric unit and the subscript p denotes a “pPNA” monomeric unit. […] For performing DNA-DNA control hybridizations, a DNA oligomer with a sequence identical to that of the […] oligomer, […]) was also synthesized. To perform the melting curve analysis, the DNA oligomers and […] oligomers were mixed at a 1:1 in a volume of 400 microliters. For nucleic acid hybridization controls, DNA oligomers and complementary (or partially complementary) DNA oligomers, were mixed at a 1:1 ratio in a volume of 400 microliters. The hybridization solutions contained 20 millimolar Tris-HCl, pH 7.5, 150 millimolar NaCl, and 10 millimolar MgCl2. The mixtures of DNA oligomers or DNA oligomers with […] oligomers were then incubated at 90 degrees C. for 3 minutes and allowed to cool gradually to room temperature overnight. […] Changes in the absorbance at 260 nanometers were recorded, and a Tm was calculated for each combination of oligomers. In some cases, there was no discernible Tm, which we interpret to be the result of the inability of particular oligomer pairs to form stable complexes.

HypNA-pPNA 16-mer [2] = experiment: Melting curve analysis, mismatch discrimination in moderate salt, PNA/DNA; settings: for Tm, ° C. PNA/DNA: 20 millimolar Tris-HCl, pH 7.5, 150 millimolar NaCl, 10 millimolar MgCl2, oligomers 1:1, * = Tms not reliable, complex probably unstable; for ΔTm PNA/DNA: 150 millimolar NaCl, relative to no mismatches
Source text: as §1

[3] = system: DNA oligomer with a sequence identical to that of the HypNA-pPNA oligomer; experiment: Melting curve analysis, mismatch discrimination in high salt, DNA/DNA control; settings: for Tm, ° C. DNA/DNA: 20 millimolar Tris-HCl, pH 7.5, 500 millimolar NaCl, 10 millimolar MgCl2, oligomers 1:1; for ΔTm DNA/DNA: 500 millimolar NaCl, relative to no mismatches
Source text: (§2) The sequence of the […] oligomer was: Th-Gp-Gh-Tp-Ch-Tp-Ch-Ap-Ah-Gp-Th-Cp-Ah-Gp-Th-Gp-. […] For performing DNA-DNA control hybridizations, a DNA oligomer with a sequence identical to that of the […] oligomer was also synthesized. To perform the melting curve analysis, the DNA oligomers and […] oligomers were mixed at a 1:1 ratio in a volume of 400 microliters. For nucleic acid hybridization controls, DNA oligomers and complementary (or nearly complementary) DNA oligomers, were mixed at a 1:1 ratio in a volume of 400 microliters. The hybridization solutions contained 20 millimolar Tris-HCl, pH 7.5, 500 millimolar NaCl, and 10 millimolar MgCl2. The mixtures of DNA oligomers or DNA oligomers with […] oligomers were then incubated at 90 degrees C. for 3 minutes and allowed to cool gradually to room temperature overnight. […] Changes in the absorbance at 260 nanometers were recorded, and a Tm was calculated for each combination of oligomers. In some cases, there was no discernible Tm, which we interpret to be the result of the inability of particular oligomer pairs to form stable complexes.

HypNA-pPNA 16-mer [4] = experiment: Melting curve analysis, mismatch discrimination in high salt, PNA/DNA; settings: for Tm, ° C. PNA/DNA: 20 millimolar Tris-HCl, pH 7.5, 500 millimolar NaCl, 10 millimolar MgCl2, oligomers 1:1; for ΔTm PNA/DNA: 500 millimolar NaCl, relative to no mismatches
Source text: as §2

[5] = system: Oligonucleotide probes labeled with ^32P (DNA probe); experiment: Hybridization of support-bound polyacrylamide-oligomer co-polymers to labeled oligonucleotide probes; effect of single-base mismatches; settings: 0.1 M NaCl, 10 mM sodium phosphate (pH 7), 5 mM EDTA, 10 mM MgCl2, 0.1% sodium dodecyl sulfate

## 5′-CAC GGA GTT GAG ACC A -3′ (SEQ ID NO: 32) (DNA CACGGAGTTGAGACCA; DNA, backbone not given here) [Mismatch M, DNA oligomer with mismatches to the HypNA-pPNA 16-mer]
[1]
  Tm, ° C. DNA/DNA: 50.2 °C and 45.2 °C
  ΔTm DNA/DNA: 11.5 °C and 16.4 °C

## 5′-CAC TGA ATT GAG ACC A -3′ (SEQ ID NO: 30) (DNA CACTGAATTGAGACCA; DNA, backbone not given here) [Mismatch J, DNA oligomer with mismatch to the HypNA-pPNA 16-mer]
[1]
  Tm, ° C. DNA/DNA: 52.3 °C and 52.5 °C
  ΔTm DNA/DNA: 9.3 °C and 9.2 °C

## 5′-CAC TGA CAT GAG ACC A -3′ (SEQ ID NO: 28) (DNA CACTGACATGAGACCA; DNA, backbone not given here) [Mismatch H, DNA oligomer with mismatch to the HypNA-pPNA 16-mer]
[1]
  Tm, ° C. DNA/DNA: 50.0 °C and 53.4 °C
  ΔTm DNA/DNA: 11.6 °C and 8.3 °C
HypNA-pPNA 16-mer [2]
  Tm, ° C. PNA/DNA: 52.7 °C and 51.8 °C
  ΔTm PNA/DNA: 5.5 °C and 6.1 °C
[3]
  Tm, ° C. DNA/DNA: 55.1 °C and 53.3 °C
  ΔTm DNA/DNA: 9 °C and 11 °C
HypNA-pPNA 16-mer [4]
  Tm, ° C. PNA/DNA: 41.3 °C and 43.5 °C
  ΔTm PNA/DNA: 17 °C and 15 °C

## 5′-CAC TGA CGT GAG ACC A -3′ (SEQ ID NO: 26) (DNA CACTGACGTGAGACCA; DNA, backbone not given here) [Mismatch F, DNA oligomer with mismatch to the HypNA-pPNA 16-mer]
[1]
  Tm, ° C. DNA/DNA: 52.6 °C and 55.6 °C
  ΔTm DNA/DNA: 9 °C and 6.1 °C
HypNA-pPNA 16-mer [2]
  Tm, ° C. PNA/DNA: 43.7 °C
  ΔTm PNA/DNA: 14.5 °C and 14.2 °C
[3]
  Tm, ° C. DNA/DNA: 53.9 °C and 55.3 °C
  ΔTm DNA/DNA: 10 °C and 9 °C
HypNA-pPNA 16-mer [4]
  Tm, ° C. PNA/DNA: No Tm

## 5′-CAC TGA CTG GAG ACC A -3′ (SEQ ID NO: 27) (DNA CACTGACTGGAGACCA; DNA, backbone not given here) [Mismatch G, DNA oligomer with mismatch to the HypNA-pPNA 16-mer]
[1]
  Tm, ° C. DNA/DNA: 52.2 °C and 52.6 °C
  ΔTm DNA/DNA: 9.4 °C and 9.1 °C
[3]
  Tm, ° C. DNA/DNA: 56.2 °C and 56.1 °C
  ΔTm DNA/DNA: 8 °C
HypNA-pPNA 16-mer [4]
  Tm, ° C. PNA/DNA: No Tm

## 5′-CAC TGA CTT GAG ACC A -3′ (SEQ ID NO: 20) [No mismatches]
[1]
  Tm, ° C. DNA/DNA: 61.7 °C and 61.6 °C
HypNA-pPNA 16-mer [2]
  Tm, ° C. PNA/DNA: 57.9 °C and 58.2 °C
[3]
  Tm, ° C. DNA/DNA: 63.8 °C and 64.5 °C and 64.0 °C
HypNA-pPNA 16-mer [4]
  Tm, ° C. PNA/DNA: 59.1 °C and 58.0 °C

## 5′-CAC TGA CTT GAG ACG A -3′ (SEQ ID NO: 24) (DNA CACTGACTTGAGACGA; DNA, backbone not given here) [Mismatch D, DNA oligomer with mismatch to the HypNA-pPNA 16-mer]
[3]
  Tm, ° C. DNA/DNA: 60.8 °C and 62.7 °C
HypNA-pPNA 16-mer [4]
  Tm, ° C. PNA/DNA: 54.3 °C and 54.9 °C
  ΔTm PNA/DNA: 4 °C and 3 °C

## 5′-CAC TGA CTT GAG TCC A -3′ (SEQ ID NO: 23) (DNA CACTGACTTGAGTCCA; DNA, backbone not given here) [Mismatch C, DNA oligomer with mismatch to the HypNA-pPNA 16-mer]
[1]
  Tm, ° C. DNA/DNA: 51.6 °C and 53.8 °C
  ΔTm DNA/DNA: 10 °C and 7.9 °C
HypNA-pPNA 16-mer [2]
  Tm, ° C. PNA/DNA: 48.3 °C and 49.2 °C
  ΔTm PNA/DNA: 9.9 °C and 8.7 °C

## 5′-CAC TGA GTG GAG ACC A -3′ (SEQ ID NO: 22) (DNA CACTGAGTGGAGACCA; DNA, backbone not given here) [Mismatch B, DNA oligomer with mismatches to the HypNA-pPNA 16-mer]
[1]
  Tm, ° C. DNA/DNA: 42.6 °C
  ΔTm DNA/DNA: 19 °C and 18.9 °C
HypNA-pPNA 16-mer [4]
  Tm, ° C. PNA/DNA: No Tm

## 5′-CAC TGA GTT CAG ACC A -3′ (SEQ ID NO: 29) (DNA CACTGAGTTCAGACCA; DNA, backbone not given here) [Mismatch K, DNA oligomer with mismatches to the HypNA-pPNA 16-mer]
[1]
  Tm, ° C. DNA/DNA: 33.3 °C and 36.2 °C
  ΔTm DNA/DNA: 28.3 °C and 25.5 °C
HypNA-pPNA 16-mer [2]
  ΔTm PNA/DNA: 7 °C

## 5′-CAC TGA GTT GAG ACC A -3′ (SEQ ID NO: 21) [Mismatch A]
[1]
  Tm, ° C. DNA/DNA: 51.7 °C and 51.8 °C
  ΔTm DNA/DNA: 9.9 °C
HypNA-pPNA 16-mer [2]
  Tm, ° C. PNA/DNA: 45.1 °C and 45.4 °C
  ΔTm PNA/DNA: 13.1 °C and 12.5 °C
[3]
  ΔTm DNA/DNA: 7 °C
HypNA-pPNA 16-mer [4]
  Tm, ° C. PNA/DNA: 41.4 °C and 41.1 °C
  ΔTm PNA/DNA: 17 °C

## 5′-CAC TGA GTT GGG ACC A -3′ (SEQ ID NO: 31) (DNA CACTGAGTTGGGACCA; DNA, backbone not given here) [Mismatch L, DNA oligomer with mismatches to the HypNA-pPNA 16-mer]
[1]
  Tm, ° C. DNA/DNA: 47.4 °C and 50.0 °C
  ΔTm DNA/DNA: 14.2 °C and 11.7 °C
HypNA-pPNA 16-mer [2]
  ΔTm PNA/DNA: 24.3 °C

## 5′-CGG TGA CTT GAG ACC A -3′ (SEQ ID NO: 25) (DNA CGGTGACTTGAGACCA; DNA, backbone not given here) [Mismatch E, DNA oligomer with mismatches to the HypNA-pPNA 16-mer]
[1]
  Tm, ° C. DNA/DNA: 52.7 °C and 55.1 °C
  ΔTm DNA/DNA: 8.9 °C and 6.6 °C
[3]
  Tm, ° C. DNA/DNA: 56.5 °C and 56.8 °C
  ΔTm DNA/DNA: 7 °C
HypNA-pPNA 16-mer [4]
  Tm, ° C. PNA/DNA: No Tm

## 19 (DNA CTGCAAAGGACACCATGA; DNA, backbone not given here) [Oligomer 19]
[5]
  Td (degr. C.): 55 degr. C.
  Tm (degr. C.): 54 degr. C.

## 20 (DNA CTGCAAAGCACACCATGA; DNA, backbone not given here) [Oligomer 20]
[5]
  Td (degr. C.): 41 degr. C.
  Tm (degr. C.): 40 degr. C.

Source: patent US6962906B2, “Oligonucleotide analogues, methods of synthesis and methods of use” (Active Motif, priority 2000, dated 2005)
